From US7902260B2, “Medicament for preventive and/or therapeutic treatment of lower urinary tract symptom” (Kemphys Ltd., priority 2007, dated 2011)

Test system: Rat Hydrochloric Acid-induced Cystitis Model
Assay: Evaluation in a rat hydrochloric acid-induced cystitis model (cystometry)
Format: in vivo
Experimental: On day 1, Crlj:CD(SD) male rats at 8 weeks of age were anesthetized by 2% isofurane inhalation and the abdomen of the rats were opened. After cannula was inserted into the bladder and fixed, the incision was closed with suture. On day 2, 0.2 N hydrochloric acid was injected into the bladder through cannula for 15 min to induce cystitis. On day 3, the first oral administration of a drug was performed. Since then, the drug was administrated once a day continuously for 7 days. As a retinoid drug, 3 mg/kg tamibarotene (Am80, 4-[(5,6,7,8-tetrahydro-5,5,8,8-tetramethyl-2-naphthalenyl)-carbamoyl] benzoic acid) suspended in 0.5% carboxymethylcellulose was orally administered. For the control group, 0.5% carboxymethylcellulose was orally administered. On day 10, bladder function under unanesthetized and unrestrained state was evaluated by cystometry. Via a three-way stopcock, warm saline (37° C.) was infused into the tube which was inserted into the bladder. At the other end of a three-way stopcock, bladder pressure was measured for 60 min by a pressure amplifier through a pressure transducer. At the same time, the weight change of excreted urine was measured using a balance. From these measured data, basal bladder pressure, maximum bladder pressure, micturition interval, and micturition volume were calculated. 5 rats were used in each group, control and tamibarotene group.
Values were indicated as average ±standard error. The difference between averages of control group and tamibarotene group was evaluated by Student's t-test (***p<0.001 compared with control).

[1] = 3 mg/kg oral once a day for 7 days, cystometry on day 10, unanesthetized unrestrained rats, average ± standard error

SMILES: CC1(C)CCC(C)(C)c2cc(NC(=O)c3ccc(C(=O)O)cc3)ccc21 [Tamibarotene, 4-[(5,6,7,8-tetrahydro-5,5,8,8-tetramethyl-2-naphthalenyl)-carbamoyl] benzoic acid]
- Basal bladder pressure [1]: 15.1 ± 2.8 mmHg
- Maximum bladder pressure [1]: 36.6 ± 6.0 mmHg
- Micturition volume (3 mg/kg oral once a day for 7 days, cystometry on day 10, average ± standard error): 0.61 ± 0.24 g
- Micturition interval (3 mg/kg oral once a day for 7 days, cystometry on day 10, average ± standard error, ***p<0.001 compared with control): 884 ± 113*** second
- Micturition interval compared to control group (in words) (3 mg/kg tamibarotene-administered group vs control, Student's t-test): significantly improved
